Measured values as given in BindingDB's records for doi:10.1021/jm00032a001 (Warner-Lambert, 1994).

Columns and labels:
[1] = Tested for inhibition of E-selectin expression by ELISA at the dose of 30 uM
[2] = Tested for inhibition of ICAM expression by ELISA at the dose of 30 uM
[3] = as above; remark: listed apart in the source
[4] = Tested for inhibition of E-selection expression by ELISA at the dose of 30 uM

IC50 [1] [µM]	IC50 [2] [µM]	IC50 [3] [µM]	IC50 [4] [µM]	Structure (SMILES)
1.4	6.6			CNC(=O)c1sc2ccc(OC)cc2c1OC(C)C [3-Isopropoxy-5-methoxy-benzo[b]thiophene-2-carboxylic acid methylamide]
		4	6.6	COc1ccc2c(c1)c(OC(C)C)c(C(N)=O)[s+]2[O-] (stereo unspecified) [3-Isopropoxy-5-methoxy-1-oxo-benzo[b]thiophene-2-carboxylic acid amide]
3.3	3.5			CC(C)Oc1c(C(N)=O)sc2ccc(O)cc12 [5-Hydroxy-3-isopropoxy-benzo[b]thiophene-2-carboxylic acid amide]
